From patent US20240246913A1, “2-CARBOXYL-INDOLE INHIBITORS OF METALLO-BETA-LACTAMASES” (Oxford University Innovation Limited, priority 2021, published 2024) come the findings set out here.

Holding throughout (format): biochemical
In one assay the target is VIM-2 (Escherichia coli, UniProt Q5U7L7). Kind of assay: MBL inhibition, FC-5 fluorescence assay, VIM-2. Here is the method:
(§1) Inhibitors were tested using a panel of the clinically relevant B1 MBLs (NDM-1, VIM-1, -2 and IMP-1). Activities were assayed by monitoring the release of a fluorophore following the enzymatic breakdown of the cephalosporin FC-5 (https://pubs.acs.org/doi/abs/10.1021/jm400769b). FC-5 assays were conducted in clear bottomed 384 black well microplates (Greiner); the initial rate of reaction was assessed by monitoring the fluorescence intensity (λex=380 nm and λem=460 nm) using a Pherstar FS (BMG LabTech) plate reader. Initial rates of reaction were determined and dose-response analyses conducted in GraphPad Prism. Dose-response curves were fitted using the log(inhibitor) vs normalized response—variable slope model of GraphPad Prism 12. Each concentration point for routine screening was conducted with 4 intra-plate replicates.

Another assay concerns the target NDM-1 (Klebsiella pneumoniae, UniProt C7C422). Put plainly: MBL inhibition, FC-5 fluorescence assay, NDM-1. How it is done: as §1
A further assay has as its target IMP-1 (Serratia marcescens, UniProt P52699). Put plainly: MBL inhibition, FC-5 fluorescence assay, IMP-1. How it is done:
as §1

The next assay addresses VIM-1 (Pseudomonas aeruginosa, UniProt A0A0F7KYQ8). Put plainly: MBL inhibition, FC-5 fluorescence assay, VIM-1. Here is the method:
as §1

Where [1] appears, read: FC-5 cephalosporin substrate, ranges of obtained pIC50, read-out: pIC50 VIM-2 (converted).
Setting [2] is: FC-5 cephalosporin substrate, fluorescence, ranges of obtained pIC50, read-out: pIC50 NDM-1 (converted).
Where [3] appears, read: FC-5 cephalosporin substrate, fluorescence, ranges of obtained pIC50, read-out: pIC50 IMP-1 (converted).
[4] abbreviates: FC-5 cephalosporin substrate, ranges of obtained pIC50, read-out: pIC50 VIM-1 (converted).

Like-named read-outs stand apart in the source and are kept apart here. Where only a bound is given, the exact number is not on record here.

Sequence of IMP-1 (P52699 19-246, looked up, species assumed): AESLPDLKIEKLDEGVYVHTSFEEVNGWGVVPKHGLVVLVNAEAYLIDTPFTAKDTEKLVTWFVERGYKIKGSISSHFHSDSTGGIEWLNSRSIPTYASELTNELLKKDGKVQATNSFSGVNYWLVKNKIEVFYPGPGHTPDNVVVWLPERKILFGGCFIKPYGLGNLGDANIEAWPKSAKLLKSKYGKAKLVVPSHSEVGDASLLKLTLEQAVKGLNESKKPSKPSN
Sequence of NDM-1 (C7C422 29-270, looked up, species assumed): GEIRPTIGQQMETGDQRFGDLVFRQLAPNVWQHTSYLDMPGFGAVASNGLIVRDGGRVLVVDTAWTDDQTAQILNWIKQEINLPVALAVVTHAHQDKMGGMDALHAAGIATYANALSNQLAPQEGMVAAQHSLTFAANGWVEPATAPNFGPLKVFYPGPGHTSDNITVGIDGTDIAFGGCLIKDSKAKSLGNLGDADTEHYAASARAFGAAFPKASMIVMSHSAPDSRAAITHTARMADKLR

As to `CC(NC(=O)C[C@H]1CC[C@H](N)CC1)c1cccc2c(-c3ccc(CS(C)(=O)=O)c(F)c3)c(C(=O)O)[nH]c12` (mixture of isomers) [IC-100, 7-[1-[[2-(4-Aminocyclohexyl)acetyl]amino]ethyl]-3-[3-fluoro-4-(methylsulfonylmethyl)phenyl]-1H-indole-2-carboxylic acid], the IC50 was 0.1 to 1 nM at VIM-2 (setting [1]), greater than 10 nM on NDM-1 (setting [2]), greater than 10 nM on IMP-1 (setting [3]) and greater than 10 nM at VIM-1 (setting [4]).
Consider `CC(CC(=O)NCCc1c[nH]cn1)c1cccc2c(-c3ccc(CS(C)(=O)=O)c(F)c3)c(C(=O)O)[nH]c12` (racemic) [IC-104, 3-[3-Fluoro-4-(methanesulfonylmethyl)phenyl]-7-(1-{[2-(1H-imidazol-4-yl)ethyl]carbamoy}propan-2-yl)-1H-indole-2-carboxylic acid], for which the IC50 on VIM-2 (setting [1]) is greater than 10 nM; on NDM-1 (setting [2]) it was 1 to 10 nM; on IMP-1 (setting [3]), greater than 10 nM; at VIM-1 (setting [4]), greater than 10 nM.
As to `CC(c1cccc2c(-c3ccc(CS(C)(=O)=O)c(F)c3)c(C(=O)O)[nH]c12)N1CC(CCCN)OC1=O` (single isomer, unassigned) [IC-83, 7-(1-(5-(3-Aminopropyl)-2-oxooxazolidin-3-yl)ethyl)-3-(3-fluoro-4-((methylsulfonyl)methyl)phenyl)-1H-indole-2-carboxylic acid], the IC50 at VIM-2 (setting [1]) and on VIM-1 (setting [4]) was 1 to 10 nM each time.
Take `CC(c1cccc2c(-c3ccc(CS(C)(=O)=O)c(F)c3)c(C(=O)O)[nH]c12)N1CC(CCCN)OC1=O` (single isomer, unassigned) [IC-84, 7-(1-(5-(3-Aminopropyl)-2-oxooxazolidin-3-yl)ethyl)-3-(3-fluoro-4-((methylsulfonyl)methyl)phenyl)-1H-indole-2-carboxylic acid]: the IC50 at VIM-2 (setting [1]) was 0.1 to 1 nM; on NDM-1 (setting [2]) it was 0.1 to 1 nM; on IMP-1 (setting [3]), greater than 10 nM; on VIM-1 (setting [4]) it was 0.1 to 1 nM.
In the case of `CC(NS(=O)(=O)c1ccccc1)c1cccc2c(-c3cc(Cl)cc(Cl)c3)c(C(=O)O)[nH]c12` (stereo not drawn) [IC-1, 3-(3,5-Dichlorophenyl)-7-(1-(phenylsulfonamido)ethyl)-1H-indole-2-carboxylic acid], the IC50 at VIM-2 (setting [1]), on NDM-1 (setting [2]), on IMP-1 (setting [3]) and on VIM-1 (setting [4]) was greater than 10 nM each time.
As for `CC(c1cnn(C)c1)c1cccc2c(-c3ccc(CS(C)(=O)=O)c(F)c3)c(C(=O)O)[nH]c12` (stereo not drawn) [IC-3, 3-(3-Fluoro-4-((methylsulfonyl)methyl)phenyl)-7-(1-(1-methyl-1H-pyrazol-4-yl)ethyl)-1H-indole-2-carboxylic acid], the IC50 is 1 to 10 nM at VIM-2 (setting [1]), 1 to 10 nM on NDM-1 (setting [2]), greater than 10 nM at IMP-1 (setting [3]) and greater than 10 nM on VIM-1 (setting [4]).
As to `CC(c1cccs1)c1cccc2c(-c3ccc(CS(C)(=O)=O)c(F)c3)c(C(=O)O)[nH]c12` (stereo not drawn) [IC-4, 3-(3-Fluoro-4-((methylsulfonyl)methyl)phenyl)-7-(1-(thiophen-2-yl)ethyl)-1H-indole-2-carboxylic acid], the IC50 at VIM-2 (setting [1]), on NDM-1 (setting [2]), at IMP-1 (setting [3]) and on VIM-1 (setting [4]) was 1 to 10 nM throughout.
Turning to `CC(c1cnn(CCCN)c1)c1cccc2c(-c3ccc(CS(C)(=O)=O)c(F)c3)c(C(=O)O)[nH]c12` (stereo not drawn) [IC-5, 7-(1-(1-(3-Aminopropyl)-1H-pyrazol-4-yl)ethyl)-3-(3-fluoro-4-((methylsulfonyl)methyl)phenyl)-1H-indole-2-carboxylic acid], the IC50 at VIM-2 (setting [1]) was less than 0.1 nM; at NDM-1 (setting [2]) it was 0.1 to 1 nM; at IMP-1 (setting [3]) it was greater than 10 nM; at VIM-1 (setting [4]), 1 to 10 nM.
For `CC(c1cnc(Cl)s1)c1cccc2c(-c3ccc(CS(C)(=O)=O)c(F)c3)c(C(=O)O)[nH]c12` (stereo not drawn) [IC-7, 7-(1-(2-Chlorothiazol-5-yl)ethyl)-3-(3-fluoro-4-((methylsulfonyl)methyl)phenyl)-1H-indole-2-carboxylic acid] the same measures were 1 to 10 nM, 0.1 to 1 nM, 1 to 10 nM and 1 to 10 nM.
The matching figures for `CC(c1nn[nH]n1)c1cccc2c(-c3ccc(CS(C)(=O)=O)c(F)c3)c(C(=O)O)[nH]c12` (stereo not drawn) [IC-9, 7-(1-(2H-Tetrazol-5-yl)ethyl)-3-(3-fluoro-4-((methylsulfonyl)methyl)phenyl)-1H-indole-2-carboxylic acid]: greater than 10 nM, greater than 10 nM, greater than 10 nM and greater than 10 nM.
For `CC(c1cccc2c(-c3ccc(CS(C)(=O)=O)c(Cl)c3)c(C(=O)O)[nH]c12)n1cc(CCCN)nn1` (stereo not drawn) [IC-10, 7-[1-[4-(3-Aminopropyl)triazol-1-yl]ethyl]-3-[3-chloro-4-(methylsulfonylmethyl)phenyl]-1H-indole-2-carboxylic acid] the same measures were less than 0.1 nM, 0.1 to 1 nM, greater than 10 nM and greater than 10 nM.
`CC(c1cccc2c(-c3ccc(CS(C)(=O)=O)c(F)c3)c(C(=O)O)[nH]c12)N1CCNCC1` (stereo not drawn) [IC-12, 3-(3-Fluoro-4-((methylsulfonyl)methyl)phenyl)-7-(1-(piperazin-1-yl)ethyl)-1H-indole-2-carboxylic acid]: the IC50 was 1 to 10 nM against VIM-2 (pIC50 VIM-2, FC-5 cephalosporin substrate, ranges of obtained pIC50); greater than 10 nM at NDM-1; greater than 10 nM against IMP-1; greater than 10 nM at VIM-1 (pIC50 VIM-1, FC-5 cephalosporin substrate, ranges of obtained pIC50).
Consider `C[C@@H](c1cccc2cc(C(=O)O)[nH]c12)N1C[C@]2(C[C@@H](CN)C2)OC1=O` [IC-30], for which the IC50 on VIM-2 (setting [1]), on NDM-1 (setting [2]), at IMP-1 (setting [3]) and at VIM-1 (setting [4]) was greater than 10 nM each time.
Take `C[C@@H](c1cccc2c(-c3cc(O)nc(O)c3)c(C(=O)O)[nH]c12)N1C[C@]2(C[C@@H](CN)C2)OC1=O` [IC-31, 3-(2,6-dihydroxypyridin-4-yl)-7-[(1S)-1-[(2r,4r)-2-(aminomethyl)-6-oxo-5-oxa-7-azaspiro[3.4]octan-7-yl]ethyl]-1H-indole-2-carboxylic acid]: the IC50 is 1 to 10 nM on VIM-2 (setting [1]), 1 to 10 nM on NDM-1 (setting [2]), greater than 10 nM on IMP-1 (setting [3]) and greater than 10 nM on VIM-1 (setting [4]).
Take `C[C@@H](c1cccc2c(N3CCS(=O)(=O)CC3)c(C(=O)O)[nH]c12)N1C[C@]2(C[C@@H](CN)C2)OC1=O` [IC-40, 7-((S)-1-((2S,4r)-2-(aminomethyl)-6-oxo-5-oxa-7-azaspiro[3.4]octan-7-yl)ethyl)-3-(1,1-dioxidothiomorpholino)-1H-indole-2-carboxylic acid]: the IC50 on VIM-2 (setting [1]) was greater than 10 nM; on NDM-1 (setting [2]), greater than 10 nM; at IMP-1 (setting [3]), 1 to 10 nM; at VIM-1 (setting [4]), greater than 10 nM.
Turning to `C[C@@H](c1cccc2c(-c3ccc4c(c3)CC(=O)N4)c(C(=O)O)[nH]c12)N1C[C@]2(C[C@@H](CN)C2)OC1=O` [IC-41, 7-((S)-1-((2S,4r)-2-(aminomethyl)-6-oxo-5-oxa-7-azaspiro[3.4]octan-7-yl)ethyl)-3-(2-oxoindolin-5-yl)-1H-indole-2-carboxylic acid], the IC50 on VIM-2 (setting [1]) is 1 to 10 nM; at NDM-1 (setting [2]) it was 0.1 to 1 nM; on IMP-1 (setting [3]) it was greater than 10 nM; on VIM-1 (setting [4]) it was 1 to 10 nM.
As for `C[C@@H](c1cccc2c(-c3cnc(N)nc3)c(C(=O)O)[nH]c12)N1C[C@]2(C[C@@H](CN)C2)OC1=O` [IC-42, 7-((S)-1-((2S,4r)-2-(aminomethyl)-6-oxo-5-oxa-7-azaspiro[3.4]octan-7-yl)ethyl)-3-(2-aminopyrimidin-5-yl)-1H-indole-2-carboxylic acid], the IC50 on VIM-2 (setting [1]) is 0.1 to 1 nM; at NDM-1 (setting [2]) it was 0.1 to 1 nM; on IMP-1 (setting [3]), greater than 10 nM; at VIM-1 (setting [4]), 1 to 10 nM.
As to `C[C@@H](c1cccc2c(-c3cn[nH]c3)c(C(=O)O)[nH]c12)N1C[C@]2(C[C@@H](CN)C2)OC1=O` [IC-43, 7-((S)-1-((2S,4r)-2-(aminomethyl)-6-oxo-5-oxa-7-azaspiro[3.4]octan-7-yl)ethyl)-3-(1H-pyrazol-4-yl)-1H-indole-2-carboxylic acid], the IC50 on VIM-2 (setting [1]) was 1 to 10 nM; on NDM-1 (setting [2]) it was 0.1 to 1 nM; at IMP-1 (setting [3]), greater than 10 nM; on VIM-1 (setting [4]) it was greater than 10 nM.
On to `CC(c1noc(C2CNC(=O)C2)n1)c1cccc2c(-c3ccc(CS(C)(=O)=O)c(F)c3)c(C(=O)O)[nH]c12` (stereo not drawn) [IC-63, 3-[3-Fluoro-4-(methylsulfonylmethyl)phenyl]-7-[1-[5-(5-oxopyrrolidin-3-yl)-1,2,4-oxadiazol-3-yl]ethyl]-1H-indole-2-carboxylic acid], for which the IC50 is less than 0.1 nM on VIM-2 (setting [1]), 1 to 10 nM at NDM-1 (setting [2]), greater than 10 nM at IMP-1 (setting [3]) and greater than 10 nM on VIM-1 (setting [4]).
For `CC(c1cccc2c(-c3ccc(CS(C)(=O)=O)c(F)c3)c(C(=O)O)[nH]c12)n1cc(CCCN)[nH]c1=O` (stereo not drawn) [IC-64, 7-[1-[5-(3-Aminopropyl)-2-oxo-1H-imidazol-3-yl]ethyl]-3-[3-fluoro-4-(methylsulfonylmethyl)phenyl]-1H-indole-2-carboxylic acid], the IC50 was 1 to 10 nM at VIM-2 (setting [1]), 1 to 10 nM at NDM-1 (setting [2]), greater than 10 nM at IMP-1 (setting [3]) and greater than 10 nM on VIM-1 (setting [4]).
